Results taken from paper PMC9363231, “High‐resolution analysis of individual spike peptide‐specific CD4 ^+ T‐cell responses in vaccine recipients and COVID‐19 patients” (Clinical & Translational Immunology, 2022).
Like-named read-outs stand apart in the source and are kept apart here.

Tests used:
Assay in all cases: biochemical
Format in all cases: binding
[1] = biological target: HLA-DRB1*01:01 (Homo sapiens, UniProt P01903+P01911, A100R/D57E/F55L/F60I/F76Y/I96L/L162R/M171V/P40L/Q125E/R42F/V115G/Y59C)
[2] = biological target: HLA-DRB1*03:01 (Homo sapiens, UniProt P01903+P01911, A100K/A102G/A103R/A169T/F55Y/I96L/K41T/L162R/M171V/P40S/Q125H/Q178H/Q39Y/R42S/S66N/T106N/T262R/W38E/Y61H)
Chain of HLA-DRB1*03:01 (P01903 26-254, other chains not shown): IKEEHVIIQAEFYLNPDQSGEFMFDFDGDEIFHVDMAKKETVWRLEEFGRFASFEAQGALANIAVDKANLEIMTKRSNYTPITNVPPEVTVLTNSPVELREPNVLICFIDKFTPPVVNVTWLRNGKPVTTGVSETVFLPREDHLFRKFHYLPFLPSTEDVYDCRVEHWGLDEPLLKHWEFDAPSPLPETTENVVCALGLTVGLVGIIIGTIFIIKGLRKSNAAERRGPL

[3] = biological target: HLA-DRB1*04:01 (Homo sapiens, UniProt P01903+P01911, A100K/A169T/F76Y/I96L/K127E/L162R/M171V/N62H/P40V/Q125Y/R42H/S133A/S149N/S66Y/V115G/V209L/W38E)
[4] = biological target: HLA-DRB1*04:05 (Homo sapiens, UniProt P01903+P01911, A100R/A169T/D86S/F76Y/I96L/K127E/L162R/M171V/N62H/P40V/Q125Y/R42H/S133A/S149N/S66Y/V115G/V209L/W38E)
[5] = biological target: HLA-DRB1*07:01 (Homo sapiens, UniProt P01903+P01911, A100R/A102G/A103Q/D57E/D86V/E43K/F76Y/K127E/L162R/M171V/P40G/Q125H/Q99D/R33Q/R42Y/R54Q/S133A/S66F/T210M/V115G/Y107V/Y59L/Y89S)
[6] = biological target: HLA-DRB1*08:02 (Homo sapiens, UniProt P01903+P01911, A100R/A103L/A169T/F76Y/H45Y/I96F/K41T/L162R/M171V/P40S/Q125H/Q178H/Q39Y/Q99D/R218S/R42G/S66Y/V115G/W38E)
[7] = biological target: HLA-DRB1*09:01 (Homo sapiens, UniProt P01903+P01911, A100R/A103E/D57H/D86V/F55Y/F60I/F76Y/I96F/K127E/L162R/M171V/P40D/Q125H/Q99R/R33Q/R42F/S133A/S66N/T210M/V115G/W38K/Y107V/Y59G/Y89S)
[8] = biological target: HLA-DRB1*11:01 (Homo sapiens, UniProt P01903+P01911, A100R/A169T/A87E/I96F/K41T/L162R/M171V/P40S/Q125H/Q178H/Q39Y/Q99D/R42S/S66Y/T262R/V115G/W38E)
Chain of HLA-DRB1*11:01 (P01903 26-254 limits assumed, other chains not shown): as the sequence (P01903 26-254, other chains not shown) above

[9] = biological target: HLA-DRB1*12:01 (Homo sapiens, UniProt P01903+P01911, A100R/A169T/D57E/D86V/F55L/H45Y/K41T/L162R/M171V/P40S/Q125H/Q178H/Q39Y/Q99D/R42G/S66L/T262R/V114A/V67L/W38E/Y59H/Y61H/Y89S)
[10] = biological target: HLA-DRB1*13:02 (Homo sapiens, UniProt P01903+P01911, A100E/A169T/K41T/L162R/M171V/P40S/Q125H/Q178H/Q39Y/Q99D/R42S/S66N/T262R/V115G/W38E/Y61H)
Chain of HLA-DRB1*13:02 (P01903 26-254 limits assumed, other chains not shown): as the sequence (P01903 26-254, other chains not shown) above

[11] = biological target: HLA-DRB1*15:01 (Homo sapiens, UniProt P01903+P01911)

CC[C@H](C)[C@H](NC(=O)CN)C(=O)N[C@@H](Cc1ccc(O)cc1)C(=O)N[C@@H](CCC(N)=O)C(=O)N[C@H](C(=O)N[C@@H](CO)C(=O)N[C@@H](CC(N)=O)C(=O)N[C@@H](Cc1ccccc1)C(=O)N[C@@H](CCCNC(=N)N)C(=O)N[C@H](C(=O)N[C@@H](CCC(N)=O)C(=O)N1CCC[C@H]1C(=O)N[C@H](C(=O)N[C@@H](CCC(=O)O)C(=O)N[C@@H](CO)C(=O)O)[C@@H](C)O)C(C)C)[C@@H](C)O [compound 63]
IC50 [1]: 2390 nM | IC50 [2]: > 40000 nM | IC50 [3]: 62 nM | IC50 [4]: 201 nM | IC50 [5]: 12 nM | IC50 [6]: > 40000 nM | IC50 [7]: 305 nM | IC50 [8]: 1140 nM | IC50 [9]: 2070 nM | IC50 [10]: 10700 nM | IC50 [11]: 21 nM

CC[C@H](C)[C@H](NC(=O)[C@H](CCCNC(=N)N)NC(=O)[C@H](CCCCN)NC(=O)[C@H](CCCNC(=N)N)NC(=O)[C@H](CC(N)=O)NC(=O)[C@H](Cc1c[nH]c2ccccc12)NC(=O)[C@H](C)NC(=O)[C@H](Cc1ccc(O)cc1)NC(=O)[C@@H](NC(=O)[C@H](CO)NC(=O)[C@H](C)NC(=O)[C@H](Cc1ccccc1)NC(=O)[C@@H](N)CCCNC(=N)N)C(C)C)C(=O)N[C@@H](CO)C(=O)N[C@@H](CC(N)=O)C(=O)O [compound 70]
IC50 [1]: 5930 nM | IC50 [2]: > 40000 nM | IC50 [3]: 7890 nM | IC50 [4]: 6270 nM | IC50 [5]: 540 nM | IC50 [6]: 64 nM | IC50 [7]: 1380 nM | IC50 [8]: 3.9 nM | IC50 [9]: 31600 nM | IC50 [10]: > 40000 nM | IC50 [11]: 136 nM

CSCC[C@H](NC(=O)[C@H](CC(C)C)NC(=O)[C@H](Cc1ccccc1)NC(=O)[C@@H]1CCCN1C(=O)[C@H](CCC(N)=O)NC(=O)[C@H](CO)NC(=O)[C@@H](NC(=O)[C@H](Cc1ccc(O)cc1)NC(=O)[C@H](CCC(=O)O)NC(=O)[C@H](Cc1ccccc1)NC(=O)[C@@H](NC(=O)[C@@H](N)CS)[C@@H](C)O)C(C)C)C(=O)N[C@@H](CC(=O)O)C(=O)N[C@@H](CC(C)C)C(=O)N[C@@H](CCC(=O)O)C(=O)O [peptide 34]
IC50 [1]: 495 nM | IC50 [2]: 5860 nM | IC50 [3]: 1150 nM | IC50 [4]: 16 nM | IC50 [6]: 1470 nM | IC50 [8]: 3380 nM | IC50 [9]: 416 nM | IC50 [11]: 7240 nM

CC[C@H](C)[C@H](NC(=O)[C@H](CCCCN)NC(=O)[C@@H](N)Cc1ccccc1)C(=O)N[C@@H](Cc1ccc(O)cc1)C(=O)N[C@@H](CO)C(=O)N[C@@H](CCCCN)C(=O)N[C@@H](Cc1c[nH]cn1)C(=O)N[C@H](C(=O)N1CCC[C@H]1C(=O)N[C@H](C(=O)N[C@@H](CC(N)=O)C(=O)N[C@@H](CC(C)C)C(=O)N[C@H](C(=O)N[C@@H](CCCNC(=N)N)C(=O)N[C@@H](CC(=O)O)C(=O)O)C(C)C)[C@@H](C)CC)[C@@H](C)O [peptide 41]
IC50 [1]: 64 nM | IC50 [2]: > 40000 nM | IC50 [3]: 5250 nM | IC50 [4]: 16300 nM | IC50 [5]: 2.7 nM | IC50 [6]: 125 nM | IC50 [7]: 13 nM | IC50 [8]: 229 nM | IC50 [9]: 7180 nM | IC50 [10]: 9040 nM | IC50 [11]: 611 nM

CC(C)C[C@H](NC(=O)[C@H](C)NC(=O)[C@H](CC(C)C)NC(=O)[C@H](CC(C)C)NC(=O)[C@@H](NC(=O)[C@H](CCC(N)=O)NC(=O)[C@H](Cc1ccccc1)NC(=O)[C@H](CCCNC(=N)N)NC(=O)[C@@H](N)[C@@H](C)O)[C@@H](C)O)C(=O)N[C@@H](Cc1c[nH]cn1)C(=O)N[C@@H](CCCNC(=N)N)C(=O)N[C@@H](CO)C(=O)N[C@@H](Cc1ccc(O)cc1)C(=O)N[C@@H](CC(C)C)C(=O)N[C@H](C(=O)O)[C@@H](C)O [peptide 48]
IC50 [1]: 38 nM | IC50 [2]: 13800 nM | IC50 [3]: 337 nM | IC50 [4]: 794 nM | IC50 [5]: 3.9 nM | IC50 [6]: 177 nM | IC50 [7]: 11 nM | IC50 [8]: 14 nM | IC50 [9]: 18 nM | IC50 [10]: 29900 nM | IC50 [11]: 5 nM

CC(C)[C@H](N)C(=O)N[C@@H](Cc1ccccc1)C(=O)N[C@@H](CC(N)=O)C(=O)N[C@@H](C)C(=O)N[C@H](C(=O)N[C@@H](CCCNC(=N)N)C(=O)N[C@@H](Cc1ccccc1)C(=O)N[C@@H](C)C(=O)N[C@@H](CO)C(=O)N[C@H](C(=O)N[C@@H](Cc1ccc(O)cc1)C(=O)N[C@@H](C)C(=O)N[C@@H](Cc1c[nH]c2ccccc12)C(=O)N[C@@H](CC(N)=O)C(=O)N[C@@H](CCCNC(=N)N)C(=O)O)C(C)C)[C@@H](C)O [peptide 69]
IC50 ([1]; read-out: in vitro binding capacity (IC50), DRB1*01:01): 1030 nM | IC50 [2]: > 40000 nM | IC50 [3]: 853 nM | IC50 [4]: 976 nM | IC50 [5]: 2.7 nM | IC50 [6]: 3710 nM | IC50 [7]: 321 nM | IC50 [8]: 372 nM | IC50 [9]: 500 nM | IC50 [10]: > 40000 nM | IC50 [11]: 12 nM

CC(C)[C@H](NC(=O)CNC(=O)[C@H](Cc1ccc(O)cc1)NC(=O)[C@H](CS)NC(=O)[C@H](CCCCN)NC(=O)[C@H](Cc1ccccc1)NC(=O)[C@@H](NC(=O)[C@H](CO)NC(=O)[C@H](Cc1ccccc1)NC(=O)[C@H](CO)NC(=O)[C@H](C)NC(=O)[C@@H](N)CO)[C@@H](C)O)C(=O)N[C@@H](CO)C(=O)N1CCC[C@H]1C(=O)N[C@H](C(=O)O)[C@@H](C)O [peptide 75]
IC50 [1]: 5290 nM | IC50 [2]: > 40000 nM | IC50 [3]: 3330 nM | IC50 [4]: 559 nM | IC50 [5]: 519 nM | IC50 [6]: 4670 nM | IC50 [7]: 117 nM | IC50 [8]: 626 nM | IC50 [9]: 11500 nM | IC50 [10]: > 40000 nM | IC50 [11]: 711 nM

CC(C)C[C@H](NC(=O)[C@H](CCCNC(=N)N)NC(=O)[C@H](Cc1ccc(O)cc1)NC(=O)[C@H](CC(C)C)NC(=O)[C@@H](N)Cc1ccc(O)cc1)C(=O)N[C@@H](Cc1ccccc1)C(=O)N[C@@H](CCCNC(=N)N)C(=O)N[C@@H](CCCCN)C(=O)N[C@@H](CO)C(=O)N[C@@H](CC(N)=O)C(=O)N[C@@H](CC(C)C)C(=O)N[C@@H](CCCCN)C(=O)N1CCC[C@H]1C(=O)N[C@@H](Cc1ccccc1)C(=O)N[C@@H](CCC(=O)O)C(=O)O [peptide 91]
IC50 [1]: 7360 nM | IC50 [2]: > 40000 nM | IC50 [3]: 590 nM | IC50 [4]: 543 nM | IC50 [5]: 575 nM | IC50 [6]: 23 nM | IC50 [7]: 13 nM | IC50 [8]: 4.2 nM | IC50 [9]: 323 nM | IC50 [10]: 8570 nM | IC50 [11]: 1.7 nM

CC[C@H](C)[C@H](NC(=O)[C@H](Cc1ccccc1)NC(=O)[C@H](CO)NC(=O)[C@H](CCCNC(=N)N)NC(=O)[C@H](CCCCN)NC(=O)[C@H](CO)NC(=O)[C@@H]1CCCN1C(=O)[C@@H](N)CCCCN)C(=O)N[C@@H](CCC(=O)O)C(=O)N[C@@H](CC(=O)O)C(=O)N[C@@H](CC(C)C)C(=O)N[C@@H](CC(C)C)C(=O)N[C@@H](Cc1ccccc1)C(=O)N[C@@H](CC(N)=O)C(=O)N[C@@H](CCCCN)C(=O)O [peptide 163]
IC50 [1]: > 40000 nM | IC50 [2]: 1500 nM | IC50 [3]: 451 nM | IC50 [4]: 3440 nM | IC50 [5]: 1930 nM | IC50 [6]: 3410 nM | IC50 [7]: 519 nM | IC50 [8]: 301 nM | IC50 [9]: 3980 nM | IC50 [10]: > 40000 nM | IC50 [11]: 6810 nM

CC[C@H](C)[C@H](NC(=O)[C@H](CC(=O)O)NC(=O)CNC(=O)[C@H](CC(C)C)NC(=O)[C@H](CS)NC(=O)[C@H](CC(=O)O)NC(=O)CNC(=O)[C@H](Cc1ccc(O)cc1)NC(=O)[C@H](CCC(N)=O)NC(=O)[C@H](CCCCN)NC(=O)[C@@H](NC(=O)[C@H](Cc1ccccc1)NC(=O)CNC(=O)[C@H](C)N)[C@@H](C)CC)C(=O)N[C@@H](C)C(=O)O [peptide 167]
IC50 [1]: 1100 nM | IC50 [3]: 836 nM | IC50 [4]: 950 nM | IC50 [5]: 740 nM | IC50 [6]: 22300 nM | IC50 [7]: 1560 nM | IC50 [8]: 3750 nM | IC50 [9]: 17000 nM | IC50 [11]: 716 nM
